Data on 2 compounds can be found in article PMC7390954 (Frontiers in Microbiology, 2020).

For one assay, the system named is P. aeruginosa. To be noted: cited from earlier work.
For assay [1], the system named is P. aeruginosa UCBPP-PA14 wild-type. It counts as cell-based, Pseudomonas aeruginosa. To be noted: standard twofold dilution MIC in 96-well plates.
The test system of assay [2] is Pseudomonas aeruginosa UCBPP-PA14 wild-type.
For assay [3], the system named is P. aeruginosa UCBPP-PA14 wild-type and tssK-2 mutant (1:1). It counts as cell-based, Pseudomonas aeruginosa.

Converted amounts (≈) assume the structure as drawn. Peptide text beside a SMILES is read from it.

For the compound murepavadin, in the assay with P. aeruginosa, the MIC90 (in general, the lowest concentration that inhibits either 90% of growth or 90% of the strains tested, depending on the study) is 2 µg/mL.

`CC(C)CCCCC(=O)N[C@@H](CCN)C(=O)N[C@H](C(=O)N[C@@H](CCN)C(=O)N[C@H]1CCNC(=O)[C@H]([C@@H](C)O)NC(=O)[C@H](CCN)NC(=O)[C@H](CCN)NC(=O)[C@H](CC(C)C)NC(=O)[C@@H](Cc2ccccc2)NC(=O)[C@H](CCN)NC1=O)[C@@H](C)O` [PMB, polymyxin B2] (HELM PEPTIDE1{[CC(C)CCCCC(=O)[*:2]].[Dab].T.[Dab].[Dab].[Dab].[dF].L.[Dab].[Dab].T}$PEPTIDE1,PEPTIDE1,5:R3-11:R2$$$V2.0): the “MIC, Without Spermidine” value in assay [1] came to 50. In addition, the “MIC, With 4 mM Spermidine” value in assay [1] (4 mM spermidine) is above 100. The “MIC, BM2 (H)” value in assay [2] (BM2 with high (2 mM) Mg2+, MIC = no growth after 10 h) is 0.3 µg/mL (≈ 0.252 µM). Besides, the “MIC, BM2 (L)” value in assay [2] (BM2 with low (20 μM) Mg2+, 0.002% tween 80, 0.2% rhamnose, MIC = no growth after 10 h) amounted to 32 µg/mL (≈ 26.9 µM). For the same compound, in assay [2] (BM2 with low (20 μM) Mg2+, concentration that slowed down growth by 30% compared to untreated control), the “Sub-MIC (L)” value was 2 µg/mL. Besides, in assay [3], the “fate of tssK-2 mutant in 1:1 mixture with wild-type” value was “out-competed”.
